This data set is described as follows: gradient 5% acetonitrile 3 min, to 50% in 2 min, to 85% in 15 min, held 3 min, 100 µL/min. The conditions noted are these: column: Zorbax Extend-C18 2.1 x 50 mm; eluents: water / acetonitrile, 0.1% formic acid. The method, boiled down:
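Pure standards were analyzed in mixtures of ~100 molecules using HPLC coupled to a quadrupole time-of-flight mass spectrometer, in both positive and negative ionization mode. Separation used a Zorbax Extend-C18 column (2.1 × 50 mm, 1.8 μm) at 100 μL/min, with water and acetonitrile each containing 0.1% formic acid. Dead and dwell volumes were 40 μL and 900 μL, and data were collected over 3 months. Retention time was read from computationally picked adduct peaks, each inspected manually.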
Consider `Cc1cccc(-c2[nH]ncc2CN)c1`, for which the RP-LC retention time was 561 s. `Cc1ccc(C(=O)N2CCCn3nc(-c4ccc(Cl)cc4)cc3C2)s1` came in with an RP-LC retention time of 931 s. Then `CCCCN1N=C(C(=O)N2CCCCCC2)S(=O)(=O)c2ccccc21`, with 1030 s. The result for `CCCc1cc(N2CCN(C(=O)c3ccco3)CC2)nc2nnc(C)n12` reads 868 s. As for `O=C1NCCCCCCN(C(=O)c2ccsc2)[C@H]2CCC[C@@H]12`, the RP-LC retention time was 733 s.

As for `CCCn1c(-c2cccc(C(=O)NCc3cccs3)c2)nc2cccnc21`, the RP-LC retention time stood at 782 s.

`CC(C)Cn1cc(CCNC(=O)c2cc3ccccc3[nH]2)c2cccnc21` yielded an RP-LC retention time of 850 s. In turn, `CCc1ccc2nc(NC3=NCN(Cc4cccnc4)CN3)nc(C)c2c1` registered an RP-LC retention time of 608 s.

As for `Cc1ccccc1CNC(=O)C1(C)CCCN(C(=O)Nc2cccc(Cl)c2C)C1` (stereo not given), the RP-LC retention time was determined as 1060 s. The result for `Cc1noc(-c2cc(=O)n(CC(=O)Nc3cccc(Cl)c3C)c3ccccc23)n1` reads 923 s; that for `COc1ccc(CNC(=O)N2CCC(OC3CCN(S(C)(=O)=O)CC3)CC2)cc1`, 699 s. With `Cc1ccc(CNC(=O)C2CCN(S(=O)(=O)c3cc(C(=O)N4CCCCCC4)cs3)CC2)o1`, the RP-LC retention time is 862 s. Take `CCCCC(=O)Nc1nc(-c2ccc3c(c2)N(C)C(=O)CO3)c(C)s1`: the RP-LC retention time amounted to 925 s. The result for `CC1(C(=O)NC2CCCCCC2)Cn2c(cc3occc32)C(=O)N1Cc1ccccn1` (stereo not given) reads 766 s. Then `Fc1ccccc1N1CCN(Cc2nc(-c3ccc(N4CCCC4)nc3)no2)CC1`, with 698 s; and `Cc1c(-c2nnc(C(=O)NCCCN3CCCC3)o2)oc2c(C)cccc12`, with 688 s; and `CCOC(=O)c1sc(NC(=O)C2CC2)nc1-c1ccccc1`, with 942 s. The result for `Cc1ccc(S(=O)(=O)Nc2ccc(-c3cn4ccc(C)nc4n3)cc2)cc1` reads 646 s; that for `O=C(Cn1cccc1-c1nnc(-c2ccccc2)o1)N1CCC2(CC1)OCCO2`, 834 s. `O=C(O)c1nnn(-c2cccc(F)c2)c1-c1ccccn1` yielded an RP-LC retention time of 671 s. Then `C=CCN1C(=O)C2(c3ccccc31)c1[nH]c3ccccc3c1CCN2C(C)=O` (stereo not given), with 836 s; and `Cc1cc(C)n(-c2nc(C)c(C(=O)N3CCc4ccccc4C3)s2)n1`, with 1090 s; and `COCc1nnc([C@@H]2CC(F)(F)CN2Cc2ccc(OC)cc2)o1`, with 837 s. Then `CCN(CC)C(=O)c1ccc2c(c1)N(CC(=O)NC1CCCC1)C(=O)C1CCCCN21` (stereo not given), with 789 s; and `COCC(=O)Nc1ccc2nc(-c3ccc(F)cc3)cc(OCC(=O)OC)c2c1`, with 682 s; and `Cc1cc(=O)n(CC(=O)Nc2cccc(C#N)c2)c(-c2ccc(F)cc2)n1`, with 995 s. The compound `NC(N)=NCCC[C@H](NC(=O)c1sccc1NS(=O)(=O)c1cccc2nsnc12)C(=O)O` had an RP-LC retention time of 685 s. Then `COc1ccc(CNC(=O)C2CCN(C(=O)c3nn(C)c4c3CN(C(=O)C(C)C)CC4)CC2)cc1`, with 662 s; and `COc1cc(OC)c(NC(=O)c2cc3c(n(-c4ccc(F)cc4)c2=O)CCCC3=O)cc1Cl`, with 970 s; and `O=C1CC(c2nc(-c3ccc4c(c3)OCO4)no2)CN1c1ccc2c(c1)OCO2` (stereo not given), with 862 s. `CCCC(=O)NC1CCN(c2cc(C)cc(C)c2)C1=O` (stereo not given) showed an RP-LC retention time of 750 s. For `CC(NC(=O)CC1Sc2ccc(C(F)(F)F)cc2NC1=O)c1ccccc1` (stereo not given), the RP-LC retention time came to 848 s. The result for `O=C(c1ccc2nsnc2c1)N1CCN(c2ccc(F)cc2)CC1` reads 811 s; that for `CCCc1noc(-c2ccnc(-n3ncc(C(=O)N4CCN(CC)CC4)c3C)c2)n1`, 643 s; that for `CCc1nc(-c2cc(S(=O)(=O)NCC(=O)N3CCOCC3)c(C)s2)no1`, 753 s.

`CN1C(=O)c2cc(C(=O)NCc3ccccc3Cl)nn2CC1(C)C(=O)NCc1ccccc1` (stereo not given) displayed an RP-LC retention time of 789 s. The result for `CCc1nc(OCC(=O)Nc2ccccc2F)c2ccccc2n1` reads 775 s; that for `O=C(c1cccs1)N1CCCCC1c1nncn1Cc1ccccc1` (stereo not given), 642 s; that for `O=C(c1cn2ccccc2n1)N1CCN(c2ccccc2Cl)CC1`, 854 s.

For `COc1ccc(S(=O)(=O)NCC2CCN(Cc3cc(C)oc3C)CC2)cc1Cl`, the RP-LC retention time stood at 660 s.

In turn, `CCCNS(=O)(=O)c1cc(-c2nc(C(C)C)cs2)sc1C` displayed an RP-LC retention time of 1160 s.

The compound `O=C(CSc1nnc(CNC(=O)c2ccc(F)cc2)o1)NCc1ccc2c(c1)OCO2` had an RP-LC retention time of 672 s. The result for `CCC(C)C(NC(=O)c1ccc(C(F)(F)F)cc1)C(=O)Nc1nc2ccccc2[nH]1` (stereo not given) reads 847 s.

Turning to `CC(NC(=O)C1CCCN(c2cnc3nccnc3c2)C1)c1ccccn1` (stereo not given), the RP-LC retention time was 565 s.

With `CC(C)c1ccc(S(=O)(=O)N2CCC3(CC2)NCCN=C3NCc2ccccc2)cc1`, the RP-LC retention time was 791 s. The result for `CCCn1cc(CCNS(=O)(=O)c2cccc(Cl)c2)c2cccnc21` reads 804 s; that for `Oc1ccccc1Nc1ccccn1`, 597 s. Regarding `O=C(NCC1CC1)c1c(O)c2cccnc2n(Cc2ccccc2)c1=O`, the RP-LC retention time is 1310 s. As for `CCCN(CC1CCOC1)S(=O)(=O)c1cccc(C)c1` (stereo not given), the RP-LC retention time stood at 931 s.

In turn, `Cc1ccc(-n2ncc3c(=O)n(Cc4nc(-c5ccc(Cl)c(F)c5)no4)cnc32)cc1` showed an RP-LC retention time of 1210 s. Regarding `CCOCCCNC(=O)Nc1ccc2nc(N3CCOCC3)cc(C)c2c1`, the RP-LC retention time came to 596 s. The result for `CSc1ccc(NC(=O)c2cn3c(n2)COCC3)cc1` reads 684 s; that for `COc1cccc(CNC(=O)N2CCCC(C)(C(=O)NCc3ccc(F)cc3)C2)c1` (stereo not given), 815 s; that for `Cc1nc(C2(C)CCN(S(=O)(=O)c3ccc(C(C)C)cc3)CC2)no1`, 1050 s. The result for `O=C(Nc1nccs1)c1ccc([N+](=O)[O-])cc1Cl` reads 722 s. The result for `CCOC(=O)c1cccc(Nc2c(-c3ccc(Cl)cc3)nc3cnccn23)c1` reads 992 s. Turning to `Cc1ccc(Cc2nc(C3CC(=O)N(c4ccc(Cl)cc4)C3)no2)cc1` (stereo not given), the RP-LC retention time was found to be 1060 s.

Compound `CS(=O)(=O)Nc1cccc(NC(=O)CN2CCN(c3ccc4c(c3)OCCO4)C2=O)c1` returned an RP-LC retention time of 657 s. Then `CCc1ccc(C2=C(C)C(N3CCCN(C(=O)NC4CCCC4)CC3)=NS2(=O)=O)cc1`, with 865 s; and `COc1cc(NS(=O)(=O)c2cc3n(c2)CCN(C(C)C)C3=O)cc(OC)c1`, with 748 s.

Source of the values: the METLIN SMRT retention time set (Domingo-Almenara et al. 2019).
